Reference: US20060252814A1, “Formulation comprising a betablocker and optionally a cholestrol-lowering agent” (AstraZeneca AB, priority 2000, published 2006)

How the values were obtained:
[1] = tested on: common carotid artery intima-media thickness in asymptomatic subjects with a carotid plaque; assay: Carotid ultrasound, change in mean intima-media thickness (IMTmean) in the common carotid artery, 36 months double-blind placebo-controlled trial; format: in vivo, human; settings: for Common carotid IMTmean, Δ 18 months to baseline (± SD) / Common carotid IMTmean, Δ 36 months to baseline (± SD): mean change; for Common carotid IMTmean, 18 months (± SD): mean value at 18 months follow-up, metoprolol 25 mg o.d. / fluvastatin 40 mg o.d., factorial groups; for Common carotid IMTmean, 36 months (± SD): mean value at 36 months follow-up; for Common carotid IMTmean, Δ between groups at 36 months (95% CI): versus placebo
Excerpt: (§1) The study population consisted of asymptomatic men and women, aged 49 to 70 years, with a plaque in the right carotid artery. A random 50% of those who entered the study were invited to take part in a study on the epidemiology of carotid artery disease. 1548 subjects came to the enrolment examination (visit one) including medical history, physical examination, laboratory measurements and a two-dimensional B-mode ultrasound of the right carotid artery. Subjects with a qualifying lesion in the right carotid artery, and who had no contraindications to the study protocol were invited to take part. In all, 793 subjects were eligible for randomization. All participants provided written informed consent Major exclusion criteria were history of myocardial infarction, angina pectoris or stroke within the preceding three months, history of surgical intervention in the right carotid artery, regular use of beta-blockers or stating, blood pressure above 160 systolic or 95 mm Hg diastolic, hypercholesterolemia (>8.0 mmol/L), hyperglycemia requiring or suspected to require insulin treatment, and conditions which in the opinion of the investigator rendered the subject unsuitable for the trial. […] Death and incidence of major cardiovascular endpoints were monitored. […] Throughout the trial an Acuson 128 […] (Acuson, Mountain View, Calif.) with a 7 MHz transducer was used. The examination procedure and image analysis, as described elsewhere ([…] et al., Clin Physiol, 11:565-577, 1991; […] et al., Stroke, 28:2195-2200, 1997) was performed by specially trained sonographers certified upon completion of an extensive educational program (Berglund, et al., J Intern Med, 236:581-586, 1994). In brief, the right carotid bifurcation was scanned within a pre-defined window comprising three centimeters of the distal common carotid artery, the bifurcation and one centimeter of the internal and external carotid arteries, respectively, for the presence of plaques, defined as focal intima-media thickenings above 1.2 mm. Thickness of the intima-media complex was measured in the far wall according to the leading edge principle, using a specially designed computer-assisted image analyzing system based on automated detection of the echo structures, but with the option to make manual corrections by the operator. Each image was analyzed without knowledge of the subjects' randomization group. From previous experience (Furberg et al., Circulation, 90:1679-1687, 1994) it was anticipated that the annual carotid artery […] progression rate in the placebo group would be approximately 15 μm per year with a standard deviation of 30 μm. […] The primary effect variables, change in […], and […] Bulb, was analyzed in a linear model with change in IMT as dependent variable and with treatment as a factor. Baseline IMTs and time between measurements were included in the model as covariates.

[2] = Metabolic and physiological effects of treatment in the clinical trial; format: in vivo, human
Description: A large scale clinical trial was designed to investigate the effect of low dose betablocker metoprolol on the progression of carotid IMT versus placebo and clinical outcome measures during 36 months double-blind treatment in asymptomatic subjects with a carotid plaque. The study was a randomized, double blind, parallel group, placebo-controlled, single-center study. The randomization procedure was performed by using a computer generated randomization scheme. Participants were, according to a factorial design, randomly assigned to one of four drug combination groups: placebo/placebo, metoprolol (25 mg o.d)/placebo, fluvastatin (40 mg o.d.)/placebo or metoprolol (25 mg o.d.)/fluvastatin (40 mg o.d.). The placebo was manufactured to exactly resemble the metoprolol CR/XL tablets (AstraZeneca AB, […] , Sweden), and fluvastatin (Novartis Ltd, Basel, Switzerland) capsules, respectively. Every participant was seen four times during the first year (after one, three, six and twelve months) and every 6 months thereafter. Weight was obtained every six months and a fasting lipid profile (total cholesterol, LDL-lipoprotein, HDL-lipoprotein and triglycerides) was determined every year. Liver transaminases (AST, ALT) and creatine kinase (CK) were obtained at every visit during the first year and then every year thereafter. AST or ALT values ≧3 times, and CK values ≧10 times the upper limit of normal was considered elevated during the study. Carotid ultrasound investigation was performed at baseline and after 18 and 36 months treatment.

[3] = tested on: cardiovascular (CVD) events in asymptomatic subjects with a carotid plaque; assay: Incidence of cardiovascular events during follow-up; format: in vivo, human; settings: metoprolol versus 13 cases placebo, p=0.055; fluvastatin versus 11 cases placebo, p=0.350
Excerpt: Death and incidence of major cardiovascular endpoints were monitored.

[4] = tested on: carotid bulb intima-media thickness in asymptomatic subjects with a carotid plaque; assay: Carotid ultrasound, change in maximum intima-media thickness (IMTmax) in the carotid bulb (bifurcation), 36 months double-blind placebo-controlled trial; format: in vivo, human; settings: for Bifurcation carotid IMTmean, Δ 18 months to baseline (± SD) / Bifurcation carotid IMTmean, Δ 36 months to baseline (± SD): mean change; for Bifurcation carotid IMTmean, 18 months (± SD): mean value at 18 months follow-up; for Bifurcation carotid IMTmean, 36 months (± SD): mean value at 36 months follow-up; for Bifurcation carotid IMTmean, Δ between groups at 36 months (95% CI): versus placebo
Excerpt: as §1

[5] = human, in vivo, 36 months
Description: A large scale clinical trial was designed to investigate the effect of low dose betablocker metoprolol on the progression of carotid IMT versus placebo and clinical outcome measures during 36 months double-blind treatment in asymptomatic subjects with a carotid plaque. The study was a randomized, double blind, parallel group, placebo-controlled, single-center study.
The randomization procedure was performed by using a computer generated randomization scheme. Participants were, according to a factorial design, randomly assigned to one of four drug combination groups: placebo/placebo, metoprolol (25 mg o.d)/placebo, fluvastatin (40 mg o.d.)/placebo or metoprolol (25 mg o.d.)/fluvastatin (40 mg o.d.). The placebo was manufactured to exactly resemble the metoprolol CR/XL tablets (AstraZeneca AB, Mölndal, Sweden), and fluvastatin (Novartis Ltd, Basel, Switzerland) capsules, respectively.
Safety and tolerability pattern during treatment with fluvastatin or metoprolol, was evaluated by comparing adverse events and laboratory findings to placebo. Death and incidence of major cardiovascular endpoints were monitored.
Every participant was seen four times during the first year (after one, three, six and twelve months) and every 6 months thereafter. Weight was obtained every six months and a fasting lipid profile (total cholesterol, LDL-lipoprotein, HDL-lipoprotein and triglycerides) was determined every year. Liver transaminases (AST, ALT) and creatine kinase (CK) were obtained at every visit during the first year and then every year thereafter. AST or ALT values ≧3 times, and CK values ≧10 times the upper limit of normal was considered elevated during the study. […] Subjects with high serum cholesterol or triglycerides were advised to a low-fat diet and if evidence of persistent high cholesterol values such subjects were referred to an independent specialist of lipid disorders without knowledge of the subjects randomization assignment. […]

[6] = in comparison to the placebo group

Permanent withdrawal from randomized treatment [5] | SMILES | Common carotid IMTmean, Δ 18 months to baseline (± SD) [1] | Common carotid IMTmean, Δ 36 months to baseline (± SD) [1] | Common carotid IMTmean, 18 months (± SD) [1] | Common carotid IMTmean, 36 months (± SD) [1] | Common carotid IMTmean, Δ between groups at 36 months (95% CI) [1] | CVD events during follow-up [3] | Bifurcation carotid IMTmean, Δ 18 months to baseline (± SD) [4] | Bifurcation carotid IMTmean, Δ 36 months to baseline (± SD) [4] | Bifurcation carotid IMTmean, 18 months (± SD) [4] | Bifurcation carotid IMTmean, 36 months (± SD) [4] | Bifurcation carotid IMTmean, Δ between groups at 36 months (95% CI) [4] | also measured
15% | COCCc1ccc(OCC(O)CNC(C)C)cc1 (centres unmarked) [Metoprolol, metoprolol] | −5 ± 12 μm | 22 ± 13 μm | 908 ± 205 μm | 934 ± 220 μm | −2 (−20 to 17) μm | 5 cases | 23 ± 325 μm | 154 ± 411 μm | 1937 ± 572 μm | 2003 ± 624 μm | −73 (−133 to −13) μm | reduced the rate of progression of IMTmean CCA compared with placebo ([1]; after 36 months of treatment, result in words): not; effect on other metabolic variables ([2]; compared to the placebo group): no effect; change of blood pressure [2, 6]: not significantly changed; change of lumen diameter [2, 6]: not significantly changed; decrease of mean heart rate in comparison to the placebo group ([2]; metoprolol 25 mg o.d.): 2.5 beats per min; increase of serum triglycerides compared to the placebo group ([2]; metoprolol 25 mg o.d.): 0.14 mmol/L; carotid IMTmaxBulb progression, mean difference of yearly change between groups ([4]; after 18 months of treatment, 95% CI −94 to −23, p=0.004): −58 μm; carotid IMTmaxBulb progression, mean difference of yearly change between groups ([4]; after 36 months, subgroup with serum cholesterol at baseline, 95% CI −87 to −19, p=0.001): −53 μm; carotid IMTmaxBulb progression, mean difference of yearly change between groups ([4]; compared with placebo after 36 months of treatment, 95% CI −44 to −3, p=0.014): −23 μm
21% | CC(C)n1c(/C=C/C(O)CC(O)CC(=O)O)c(-c2ccc(F)cc2)c2ccccc21 (centres unmarked) [Fluvastatin, fluvastatin] | −5 ± 11 μm | 11 ± 11 μm | 890 ± 196 μm | 905 ± 205 μm | −25 (−44 to −7) μm | 7 cases | 63 ± 334 μm | 170 ± 374 μm | 1965 ± 554 μm | 2095 ± 652 μm | −41 (−102 to 19) μm | IMTmean CCA progression, mean difference of yearly change between groups ([1]; compared with placebo after 36 months of treatment, 95% CI −15 to −3, p=0.002): −9 μm; frequency of transiently high liver enzymes ([5]; female): 10.2%
